Laboratory results taken from article PMC10118193, “Biochemical characterization of a GDP-mannose transporter from Chaetomium thermophilum” (PLOS ONE, 2023).

How the values were obtained:
[1] = molecular target: T1, CtVrg4 (Vrg4 from Chaetomium thermophilum) (Thermochaetoides thermophila, UniProt G0S534, Y310F); assay: thermal shift titration (Tycho NT.[…]); assay type: binding
T1 construct: gene CTHT_0023930; full length, 385 residues, N-terminal 12-His tag, about 37 kDa, expressed in S. cerevisiae FGY217, purified in DDM
T1 sequence (G0S534 entry or part of it Y310F): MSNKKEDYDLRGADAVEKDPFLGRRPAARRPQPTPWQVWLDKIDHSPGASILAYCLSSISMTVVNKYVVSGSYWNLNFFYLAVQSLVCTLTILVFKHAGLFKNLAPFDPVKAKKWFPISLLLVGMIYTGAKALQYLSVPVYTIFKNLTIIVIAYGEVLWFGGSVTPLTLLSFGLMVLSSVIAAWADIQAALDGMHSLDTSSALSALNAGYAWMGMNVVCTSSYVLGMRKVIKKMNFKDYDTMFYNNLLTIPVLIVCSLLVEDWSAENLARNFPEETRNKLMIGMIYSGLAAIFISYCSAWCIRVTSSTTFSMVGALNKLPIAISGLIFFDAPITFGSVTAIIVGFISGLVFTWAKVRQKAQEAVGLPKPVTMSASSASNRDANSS

[2] = molecular target: T2, Chymotrypsin-cleaved CtVrg4 (cCtVrg4) (Thermochaetoides thermophila, UniProt G0S534); assay: exchange of internal GDP-mannose with external [3H]GMP in proteoliposomes; assay type: biochemical; conditions: yeast polar lipid proteoliposomes; internal GDP-mannose 1-1000 μM; 0.384 μM external [3H]GMP; room temperature, 10 min
T2 construct: gene CTHT_0023930; full-length His-tagged protein cut by chymotrypsin (50:1, 2 h, 18 °C); crystals of cleaved protein ~25 kDa
T2 sequence (G0S534 entry or part of it): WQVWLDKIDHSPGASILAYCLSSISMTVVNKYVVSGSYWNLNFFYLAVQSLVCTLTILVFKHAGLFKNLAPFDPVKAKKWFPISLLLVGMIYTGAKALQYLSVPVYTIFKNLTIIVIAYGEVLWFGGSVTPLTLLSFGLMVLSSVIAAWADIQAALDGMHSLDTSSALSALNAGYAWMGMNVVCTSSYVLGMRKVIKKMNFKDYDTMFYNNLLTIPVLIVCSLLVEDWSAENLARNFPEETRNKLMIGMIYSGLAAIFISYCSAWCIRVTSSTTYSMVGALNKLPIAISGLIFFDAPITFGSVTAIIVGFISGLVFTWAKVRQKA

[3] = molecular target: T3, CtVrg4Δ31 (Thermochaetoides thermophila, UniProt G0S534); assay: thermal shift titration (Tycho NT.[…]); assay type: binding
T3 construct: gene CTHT_0023930; C-terminal truncation lacking the last 31 residues (Golgi retrieval signal), residues 1-354, N-terminal 12-His tag, expressed in S. cerevisiae FGY217, purified in DDM
T3 sequence (G0S534 entry or part of it, stated change not applied): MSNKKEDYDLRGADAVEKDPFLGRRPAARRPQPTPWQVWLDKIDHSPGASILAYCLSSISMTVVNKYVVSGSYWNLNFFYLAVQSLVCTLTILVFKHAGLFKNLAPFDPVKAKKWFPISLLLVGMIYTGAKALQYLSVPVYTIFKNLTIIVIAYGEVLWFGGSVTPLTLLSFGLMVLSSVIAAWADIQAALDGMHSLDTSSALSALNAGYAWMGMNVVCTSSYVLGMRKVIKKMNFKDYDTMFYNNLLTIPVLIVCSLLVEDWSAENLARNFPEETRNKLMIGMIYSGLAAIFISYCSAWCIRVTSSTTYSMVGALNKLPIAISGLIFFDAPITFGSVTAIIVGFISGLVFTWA

[4] = molecular target: T4, CtVrg4 (Vrg4 from Chaetomium thermophilum) (Thermochaetoides thermophila, UniProt G0S534); assay: thermal shift titration (Tycho NT.[…]); assay type: binding
T4 construct: gene CTHT_0023930; full length, 385 residues, N-terminal 12-His tag, about 37 kDa, expressed in S. cerevisiae FGY217, purified in DDM
T4 sequence (G0S534 entry or part of it): as the sequence (G0S534 entry or part of it Y310F) above, with F310Y counted along it

[5] = molecular target: T3, CtVrg4Δ31; assay: competition of [3H]GMP uptake into proteoliposomes; assay type: biochemical
[6] = molecular target: T4, CtVrg4 (Vrg4 from Chaetomium thermophilum); assay: competition of [3H]GMP uptake into proteoliposomes; assay type: biochemical
[7] = molecular target: T1, CtVrg4 (Vrg4 from Chaetomium thermophilum); assay: competition of [3H]GMP uptake into proteoliposomes; assay type: biochemical

SMILES | Kd [1] | Km [2] | Kd [3] | Kd [4] | IC50 [5] | IC50 [6] | IC50 [7]
Nc1nc2c(ncn2[C@@H]2O[C@H](COP(=O)(O)OP(=O)(O)O[C@H]3O[C@H](CO)[C@@H](O)[C@H](O)[C@@H]3O)[C@@H](O)[C@H]2O)c(=O)[nH]1 [GDP-mannose] | 130 µM | 32.1 µM | 58.5 µM | 74.3 µM | 48 µM | 25.5 µM | 47.1 µM
Nc1nc2c(ncn2[C@@H]2O[C@H](COP(=O)(O)O)[C@@H](O)[C@H]2O)c(=O)[nH]1 [GMP] | 139 µM |  | 63.2 µM | 143 µM |  |  | 
